Results reported in article PMC8235661, “Photoelectric Dye, NK-5962, as a Potential Drug for Preventing Retinal Neurons from Apoptosis: Pharmacokinetic Studies Based on Review of the Evidence” (Life, 2021).
Read-outs that look alike come from different tables or passages of the source.

Experiments:
[1] = Hepatic microsomal stability assay, human; assay type: in vitro ADME
Procedure: The disappearance of the parent compound over time was measured by using the amount of drug at time zero as a reference. After 5 min of preincubation, 1 mM NADPH (final concentration, the same applies to the following) was added to a mixture containing 1 μM of the test compound, 0.2 mg/mL of rat or human liver microsomes (Sekisui XenoTech, LLC, Kansas City, KS), 1 mM EDTA, and 100 mM phosphate buffer (pH 7.4) and then incubated at 37 °C for 30 min by rotation at 60 rpm. An aliquot of 50 μL of the incubation mixture was sampled and added to 250 μL of chilled acetonitrile/internal standard (IS). After the centrifugation for 15 min at 3150× g at 4 °C, the supernatants were analyzed by LC-MS/MS. Hepatic microsomal stability (mL/min/kg, CLint) was calculated according to the previous report and 44.8 or 48.8 mg microsomal protein/g liver and 40.0 or 25.7 g liver/kg body weight were used as scaling factors for the rat or human, respectively.

[2] = Eye ball concentration after intravitreous injection; assay type: in vivo, rat; details: intravitreous 16 µM (3 µL)
Procedure: The NK-5962 solutions at 16 μM concentration in phosphate-buffered saline and at 39.7 μM concentration in 0.5% methyl cellulose 400 solution (FUJIFILM Wako Chemicals, Osaka, Japan) were prepared as eye drops and topically applied to both eyes of two Wistar rats assigned for each concentration. The eyes were enucleated 30 min after topical application, washed twice in saline, weighed, and frozen for NK-5962 measurement. In parallel, 3 μL of the NK-5962 solution at 16 μM concentration in phosphate-buffered saline was injected into the vitreous of both eyes of 2 Wistar rats. The eyes in each rat were enucleated 5 min and 2 h after the intravitreous injection, washed twice in saline, weighed, and then frozen. Both eyes of one rat served as the negative control. This study was approved by the Animal Care and Use Committee at Okayama University (Identifier OKU-2016267, OKU-2019196).
(§1) Liquid chromatography and tandem mass spectrometry instrument (LC-MS8060) equipped with Shimadzu Nexera series LC system (Shimadzu, Kyoto, Japan) were used. All compounds were analyzed in multi-reaction monitoring mode under electron spray ionization conditions. The analytical column used was a […] C18 MGIII (3 μm × 2.0 mmID × 35 mm; OSAKA SODA, Osaka, Japan) at 50 °C. The gradient mobile phase consisted of 0.1% formic acid in water (mobile phase A) and 0.1% formic acid in acetonitrile (mobile phase B) at a total flow rate of 1 mL/minute. The initial mobile phase composition was 10% B, which was held constant for 0.2 min, increased in a linear fashion to 90% B over 1 min, then held constant for 0.8 min, and then finally brought back to the initial condition of 10% B over 0.01 min and re-equilibrated for 1 min. The transitions (precursor ion > product ion) of NK-5962 and IS (methyl testosterone) are 433.2 > 279.2 and 303.1 > 109.1 (positive), respectively.

[3] = Tests for the biological evaluation of medical devices (ISO 10993); details: data not shown
[4] = In vivo pharmacokinetics, intravenous administration; design: species or system rat
Procedure: Male Sprague Dawley (SD) and Wistar rats (5-week old) were obtained from Charles River Laboratories Japan (Yokohama, Japan) and Japan SLC, Inc. (Hamamatsu, Japan), respectively. All animals were maintained in air-conditioned quarters with room temperatures of 20 ± 2 °C, relative humidity of 50 ± 10%, and an alternating 12 h light/dark cycle. The rats were fed a certified diet MF (Oriental Yeast Co., Tokyo, Japan) and water ad libitum. The studies were conducted in accordance with the guidelines provided by the Animal Care and Use Committee of Osaka University (Identifier DouyakuR01-3-1).
A test compound (NK-5962) solution in 50% DMSO/water was injected intravenously (i.v.) to male SD rats. A test compound suspension in 0.5% methyl cellulose was administered orally (p.o.) to male Wistar rats. The dosage of the test compound was 1 mg/2 mL/kg (i.v.) and 10 or 100 mg/10 mL/kg (p.o.). Blood samples were collected from the jugular vein at 5 and 15 min and 1 h (i.v.) by using pre-heparinized syringe after the intravenous administration or from the caudal vein at 15 and 30 min, 1, 2 and 4 h (p.o.) by using heparinized capillary tube after the oral administration. At 30 min and 2 h (i.v.) or 8 h (p.o.), blood samples were collected from the abdominal aorta under isoflurane anesthesia and the eye balls and the whole brain were excised immediately.
Plasma was prepared by centrifugation of the blood samples. Plasma and tissues were stored at −80 °C. The tissues were homogenized with a four-fold volume of phosphate-buffered saline to obtain a 20% tissue homogenate. Plasma and 20% tissue homogenates were precipitated with 4–20 volumes of acetonitrile/IS and centrifuged at 15,000× g at 4 °C for 10 min. The supernatants were analyzed by liquid chromatography and tandem mass spectrometry (LC-MS/MS). Standard non-compartmental analysis was performed to determine the pharmacokinetic parameters: elimination half-life (t1/2) and area under the concentration time curve from time zero to infinity (AUC∞). The absolute bioavailability (BA) of the oral dose was calculated as AUC∞ (p.o.)/AUC∞ (i.v.).
as §1

[5] = intravenous 1 mg/kg, 0.5 h, single rat, 1 mg/kg
[6] = intravenous 1 mg/kg, 2 h, single rat, 1 mg/kg

With `CCCCN(CCCC)c1ccc(C=Cc2sc3ccccc3[n+]2CC(=O)O)cc1.[Br-]` [NK-5962, 2-[2-[4-(dibutylamino)phenyl]ethenyl]-3-carboxymethylbenzothiazolium bromide] the “Microsome Metabolic Stability Human” value ([1]; 1 μM, 0.2 mg/mL microsomes, 1 mM NADPH, 30 min) was 54.5 µL/min/mg, the “metabolic stability (in words)” value ([1]; human liver microsomes) was “moderate metabolic stability” and the “stability in the absence of the coenzyme NADPH” value ([1]; human liver microsomes, without NADPH) was “stable”. The CLint scaled at 1 μM ([1]; human, liver microsomes, pH 7.4, 1 μM, 0.2 mg/mL microsomes, 1 mM NADPH, 30 min, read-out: Microsome Metabolic Stability Human (CLint)) was 68.3 mL/min/kg, the concentration at 0.083 h ([2]; Wistar, rat, eye ball, other: intravitreous injection, 0.083 h (5 min), read-out: Mean Eye Ball Concentration) was 7.25 nM and the concentration at 0.083 h ([2]; Wistar, rat, eye ball, other: intravitreous injection, 0.083 h, single eye, read-out: Eye Ball Concentration) was 9.23 nM. It also gave a concentration at 2 h ([2]; Wistar, rat, eye ball, other: intravitreous injection, 2 h, single eye, read-out: Eye Ball Concentration) of 1.19 nM, a concentration at 2 h ([2]; Wistar, rat, eye ball, other: intravitreous injection, 2 h, read-out: Mean Eye Ball Concentration) of 1.49 nM and a concentration at 2 h ([2]; 0.083 h, single eye, read-out: Eye Ball Concentration) of 5.27 nM. For the same compound, the concentration at 2 h ([2]; 2 h, single eye, read-out: Eye Ball Concentration) was 1.78 nM, the “toxicity in all tests for the biological evaluation of medical devices (ISO 10993)” value [3] was “safe” and the “Plasma Concentration” value ([4]; intravenous 1 mg/kg, 0.083 h, single rat, 1 mg/kg) was 648 nM. For the same compound, the “Plasma Concentration” value ([4]; intravenous 1 mg/kg, 0.25 h, single rat, 1 mg/kg) was 342 nM, the “Eye Ball/ Plasma Ratio” value [4, 5] was 0.045 and the “Plasma Concentration” value [4, 5] was 569 nM. The concentration at 2 h ([4]; intravenous 1 mg/kg, 0.5 h, single rat, 1 mg/kg, read-out: Eye Ball Concentration) was 25.5 nM, the “Plasma Concentration” value ([4]; intravenous 1 mg/kg, 1 h, single rat, 1 mg/kg) was 34.6 nM and the “Eye Ball/ Plasma Ratio” value [4, 6] was 0.16. The “Plasma Concentration” value [4, 6] was 22.0 nM, the concentration at 2 h ([4]; intravenous 1 mg/kg, 2 h, single rat, 1 mg/kg, read-out: Eye Ball Concentration) was 3.42 nM and the Kp at 0.5 h ([4]; male, Sprague Dawley, rat, eye ball / plasma, iv, 1 mg/kg, intravenous 1 mg/kg, 0.5 h, single rat, read-out: Eye Ball/ Plasma Ratio) was 0.052. The Kp at 2 h ([4]; male, Sprague Dawley, rat, eye ball / plasma, iv, 1 mg/kg, intravenous 1 mg/kg, 2 h, single rat, read-out: Eye Ball/ Plasma Ratio) was 0.17, the concentration at 0.5 h ([4]; male, Sprague Dawley, rat, eye ball, iv, 1 mg/kg, intravenous 1 mg/kg, 0.5 h (30 min), read-out: Mean Eye Ball Concentration) was 29.8 nM and the concentration at 0.5 h ([4]; male, Sprague Dawley, rat, eye ball, iv, 1 mg/kg, intravenous 1 mg/kg, 0.5 h, single rat, read-out: Eye Ball Concentration) was 34.1 nM. For the same compound, the concentration at 2 h ([4]; male, Sprague Dawley, rat, eye ball, iv, 1 mg/kg, intravenous 1 mg/kg, 2 h, single rat, read-out: Eye Ball Concentration) was 4.16 nM, the concentration at 2 h ([4]; male, Sprague Dawley, rat, eye ball, iv, 1 mg/kg, intravenous 1 mg/kg, 2 h, read-out: Mean Eye Ball Concentration) was 3.79 nM and the concentration at 0.083 h ([4]; male, Sprague Dawley, rat, plasma, iv, 1 mg/kg, intravenous 1 mg/kg, 0.083 h, single rat) was 779 nM. The concentration at 0.25 h ([4]; male, Sprague Dawley, rat, plasma, iv, 1 mg/kg, intravenous 1 mg/kg, 0.25 h, single rat) was 511 nM, the concentration at 0.5 h ([4]; male, Sprague Dawley, rat, plasma, iv, 1 mg/kg, intravenous 1 mg/kg, 0.5 h, single rat, read-out: Plasma Concentration) was 661 nM and the concentration at 1 h ([4]; male, Sprague Dawley, rat, plasma, iv, 1 mg/kg, intravenous 1 mg/kg, 1 h, single rat) was 49.9 nM. It also gave a concentration at 2 h ([4]; male, Sprague Dawley, rat, plasma, iv, 1 mg/kg, intravenous 1 mg/kg, 2 h, single rat, read-out: Plasma Concentration) of 24.3 nM and a half-life ([4]; male, Sprague Dawley, rat, plasma, intravenous 1 mg/kg body weight, rats) of 21 min.
